Experimental data reported in patent publication US8178506B2, “Oligomeric compounds and compositions for use in modulation of small non-coding RNAs” (Regulus Therapeutics Inc., priority 2003, dated 2012).
In the oligonucleotide strings, read from the 5' end, every base follows the letter of its sugar. An asterisk marks phosphorothioate; unmarked linkages are phosphodiester. Other units and linkages are bracketed, terminal groups are in braces. A string of capitals states the bases alone. e = 2'-O-(2-methoxyethyl) (MOE); [5mC] = 5-methylcytosine; d = 2'-deoxy (DNA)

System: T47D cells
Experiment: Caspase-3 activity assay (apoptosis) in T47D cells
Details: T47D cells, 200 nM oligomeric compound, 48 hours; experiment of Table 10

Which “Fold Increase over UTC (caspase-3 activity, apoptosis)” value does the source give for “328646 (eG*e[5mC]*eT*eT*eT*dT*dA*dG*dA*dA*d[5mC]*d[5mC]*dA*d[5mC]*dT*eG*e[5mC]*e[5mC]*eT*e[5mC]; antisense) [compound 328646]” here?
Its value is 1.1 fold.

How did the “Fold Increase over UTC (caspase-3 activity, apoptosis)” value turn out when “328375 (eT*eA*e[5mC]*e[5mC]*eA*dT*dA*d[5mC]*dA*dG*dA*dA*dA*d[5mC]*dA*e[5mC]*eA*eG*e[5mC]*eA; antisense) [compound 328375]” was run?
Its value is 0.9 fold.

For “328700 (eA*eG*e[5mC]*e[5mC]*eA*dG*dT*dG*dT*dG*dT*dA*dA*dA*dA*eT*eG*eA*eG*eA; antisense) [compound 328700]”, which “Fold Increase over UTC (caspase-3 activity, apoptosis)” value is on record?
The value was 0.8 fold.

Which “Fold Increase over UTC (caspase-3 activity, apoptosis)” value does the source give for “328696 (e[5mC]*eT*e[5mC]*eT*eA*dG*d[5mC]*dT*d[5mC]*d[5mC]*d[5mC]*dT*d[5mC]*dA*d[5mC]*e[5mC]*eA*eG*eT*eG; antisense) [compound 328696]” here?
The value was 1.5 fold.

Same assay, conditions: T47D cells, 200 nM oligomeric compound, 48 hours; experiment of Table 11

How did the “Fold Increase over UTC (caspase-3 activity, apoptosis)” value turn out when “328410 (antisense eG*eG*eG*e[5mC]*e[5mC]*dT*dA*dT*d[5mC]*d[5mC]*dA*dA*dA*dG*dT*eG*eA*e[5mC]*eA*eG) [compound 328410]” was run?
The value was 1.5 fold.

“328639 (eG*eA*e[5mC]*eT*eA*d[5mC]*dT*dG*dT*dT*dG*dA*dG*dA*dG*eG*eA*eA*e[5mC]*eA; antisense) [compound 328639]” was tested. Which “Fold Increase over UTC (caspase-3 activity, apoptosis)” value did it give?
Its value is 0.8 fold.

How did the “Fold Increase over UTC (caspase-3 activity, apoptosis)” value turn out when “328390 (eG*eG*eA*eG*e[5mC]*d[5mC]*dT*dT*dG*d[5mC]*dG*d[5mC]*dT*d[5mC]*dA*eG*e[5mC]*eA*eT*eT; antisense) [compound 328390]” was run?
Its value is 0.9 fold.

How did the “Fold Increase over UTC (caspase-3 activity, apoptosis)” value turn out when “328655 (eT*eA*e[5mC]*eA*eA*d[5mC]*dG*dG*d[5mC]*dA*dT*dT*dG*dT*d[5mC]*e[5mC]*eT*eG*eA*eA; antisense) [compound 328655]” was run?
Its value is 0.7 fold.

Same assay, conditions: T47D cells, 200 nM oligomeric compound, 48 hours; experiment of Table 12

Which “Fold Increase over UTC (caspase-3 activity, apoptosis)” value does the source give for “328658 (eA*eG*eA*eA*eT*dG*dA*dG*dT*dT*dG*dA*d[5mC]*dA*dT*eA*e[5mC]*e[5mC]*eA*eA; antisense) [compound 328658]” here?
The value was 1.2 fold.

How did the “Fold Increase over UTC (caspase-3 activity, apoptosis)” value turn out when “328401 (antisense eG*e[5mC]*e[5mC]*e[5mC]*eT*d[5mC]*dG*dA*d[5mC]*dG*dA*dA*dA*dA*d[5mC]*e[5mC]*eG*eA*e[5mC]*eT) [compound 328401]” was run?
The value was 0.8 fold.

How did the “Fold Increase over UTC (caspase-3 activity, apoptosis)” value turn out when “328414 (antisense e[5mC]*eT*eT*e[5mC]*eA*dA*dG*dT*dG*d[5mC]*dA*dG*d[5mC]*d[5mC]*dG*eT*eA*eG*eG*e[5mC]) [compound 328414]” was run?
The value was 0.9 fold.

Same assay, conditions: T47D cells, 200 nM, 48 hours, relative to untreated control

“328392 (eG*eA*eT*eT*eG*d[5mC]*dA*d[5mC]*dA*dT*d[5mC]*d[5mC]*dA*d[5mC]*dA*e[5mC]*eT*eG*eT*e[5mC]; antisense) [compound 328392]” was tested. Which “Fold Increase over UTC (caspase activity)” value did it give?
The value was 1.0.

How did the “Fold Increase over UTC (caspase activity)” value turn out when “328648 (eA*e[5mC]*eT*eG*eA*dT*dT*d[5mC]*dA*dA*dG*dA*dG*d[5mC]*dT*eT*eT*eG*eT*eA; antisense) [compound 328648]” was run?
The value was 1.1.

For “328405 (antisense e[5mC]*eT*eG*eA*eA*d[5mC]*dA*dG*dG*dG*dT*dA*dA*dA*dA*eT*e[5mC]*eA*e[5mC]*eT) [compound 328405]”, which “Fold Increase over UTC (caspase activity)” value is on record?
Its value is 1.0.

How did the “Fold Increase over UTC (caspase activity)” value turn out when “328433 (antisense e[5mC]*e[5mC]*eT*e[5mC]*e[5mC]*dT*dT*dG*dT*dG*dG*dG*d[5mC]*dA*dA*eA*eA*eT*e[5mC]*e[5mC]) [compound 328433]” was run?
Its value is 1.0.

“328420 (antisense eG*e[5mC]*eT*eG*eA*dT*dT*dA*d[5mC]*dG*dA*dA*dA*dG*dA*e[5mC]*eA*eG*eG*eA) [compound 328420]” was tested. Which “Fold Increase over UTC (caspase activity)” value did it give?
The value was 1.0.

Same assay, conditions: caspase assay, 200 nM; conclusion from Tables 9-12

How did the “apoptosis in T47D cells” value turn out when “SEQ ID NO 498: gapmer of Tables 9-12 having this SEQ ID NO (antisense eG*eG*e[5mC]*eA*e[5mC]*dT*dT*d[5mC]*dA*dT*dT*dG*d[5mC]*dT*dG*e[5mC]*eT*eG*e[5mC]*e[5mC])” was run?
The value was “induce apoptosis”.

“SEQ ID NO 518: gapmer of Tables 9-12 having this SEQ ID NO (antisense eG*e[5mC]*eT*eA*eG*dT*dG*dA*d[5mC]*dA*dG*dG*dT*dG*d[5mC]*eA*eG*eA*e[5mC]*eA)” was tested. Which “apoptosis in T47D cells” value did it give?
Its value is “prevent or have a protective effect from apoptosis”.

How did the “apoptosis in T47D cells” value turn out when “SEQ ID NO 534: gapmer of Tables 9-12 having this SEQ ID NO (antisense eG*eA*e[5mC]*e[5mC]*eT*dG*d[5mC]*dT*dA*d[5mC]*dT*d[5mC]*dA*d[5mC]*dT*e[5mC]*eT*e[5mC]*eG*eT)” was run?
Its value is “prevent or have a protective effect from apoptosis”.

How did the “apoptosis in T47D cells” value turn out when “SEQ ID NO 536: gapmer of Tables 9-12 having this SEQ ID NO (eG*eA*eT*eG*eT*d[5mC]*dA*d[5mC]*dT*dG*dA*dG*dG*dA*dA*eA*eT*e[5mC]*eA*e[5mC])” was run?
Its value is “prevent or have a protective effect from apoptosis”.

For “SEQ ID NO 483: gapmer of Tables 9-12 having this SEQ ID NO (antisense eA*eG*e[5mC]*eT*eT*dT*dA*dG*d[5mC]*dT*dG*dG*dG*dT*d[5mC]*eA*eG*eG*eA*e[5mC])”, which “apoptosis in T47D cells” value is on record?
The value was “induce apoptosis”.

Which “apoptosis in T47D cells” value does the source give for “SEQ ID NO 532: gapmer of Tables 9-12 having this SEQ ID NO (antisense e[5mC]*e[5mC]*eA*e[5mC]*eA*dT*dA*dT*dA*d[5mC]*dA*dT*dA*dT*dA*eT*eA*e[5mC]*eG*e[5mC])” here?
Its value is “prevent or have a protective effect from apoptosis”.

“AGCCAGTGTGTAAAATGAGA (2'-MOE gapmer, phosphorothioate, further chemistry not given here) [ISIS 328700]” was tested. Which “apoptosis in T47D cells” value did it give?
The value was “prevent or have a protective effect from apoptosis”.

For “TACAATTTGGGAGTCCTGAA (antisense; same sequence listed as MOE 5-10-5 gapmer and as uniform MOE, further chemistry not given here) [ISIS 328689]”, which “apoptosis in T47D cells” value is on record?
The value was “prevent or have a protective effect from apoptosis”.

For “GCTTTTAGAACCACTGCCTC (antisense; same sequence listed as MOE 5-10-5 gapmer and as uniform MOE, further chemistry not given here) [ISIS 328646]”, which “apoptosis in T47D cells” value is on record?
Its value is “induce apoptosis”.

Which “apoptosis in T47D cells” value does the source give for “CAAACGGTAAGATTTGCAGA (antisense; same sequence listed as MOE 5-10-5 gapmer and as uniform MOE, further chemistry not given here) [ISIS 328694]” here?
The value was “prevent or have a protective effect from apoptosis”.

For “TTTCAGGCTCACCTCCCCAG (antisense; same sequence listed as MOE 5-10-5 gapmer and as uniform MOE, further chemistry not given here) [ISIS 328656]”, which “apoptosis in T47D cells” value is on record?
Its value is “induce apoptosis”.

With “SEQ ID NO 495: gapmer of Tables 9-12 having this SEQ ID NO (antisense eA*e[5mC]*e[5mC]*eT*eG*dT*dG*dT*dA*dA*d[5mC]*dA*dG*d[5mC]*d[5mC]*eG*eT*eG*eT*eA)” as the substance, how does the “apoptosis in T47D cells” value read?
Its value is “prevent or have a protective effect from apoptosis”.

How did the “apoptosis in T47D cells” value turn out when “ISIS 328397: 5-10-5 2′-MOE gapmer PS; targets mir-103-1 pri-miRNA (eT*eT*eG*eA*eT*d[5mC]*d[5mC]*dA*dT*dA*dT*dG*d[5mC]*dA*dA*e[5mC]*eA*eA*eG*eG)” was run?
The value was “induce apoptosis”.
